Patent US9187413B2, “Peripherally restricted FAAH inhibitors” (The Regents of the University of California, priority 2010, dated 2015)

How the values were obtained:
[1] = tested on: blood-brain barrier transporters; assay: Co-administration of inhibitors of blood-brain barrier transporters with URB937; format: in vivo; settings: rats, URB937 25 mg-kg^-1 i.p.
[2] = tested on: formalin-induced nociception; assay: Formalin-induced pain behavior; format: in vivo; settings: rats, 1 mg-kg^-1, i.p.
Experimental: Behavioral tests. We measured nocifensive responses elicited by i.p. injection of acetic acid in male Swiss and C57B1/6 (wild-type or FAAH-deficient) mice^40, intraplantar injection of carrageenan in male Swiss mice^20, intraplantar injection of formalin in male Sprague-Dawley rats^41, and sciatic nerve ligation in male Swiss mice^39.
Behavioral tests Acetic acid-induced writhing was measured in Swiss mice or C57B1/6 mice (wild-type and FAAH-deficient), as described^40 with minor modifications. Briefly, the mice were acclimated to the experimental room for 2 h. Each animal was injected with acetic acid (150 μL, 0.6% in saline) and placed into a glass cylinder. Abdominal stretches (extension of body and hind limbs) were counted for 20 min, starting 5 min after acetic acid injection. […] Behavior was scored by an observer blinded to the treatment conditions. Formalin-induced nociception was assessed in Sprague-Dawley rats, as described^41. […] Immediately after formalin injection, the rats were returned to the observation container and nocifensive behavior was recorded for 60 min with a video camera. Recordings were analyzed by observers blinded to treatment conditions. Nocifensive behavior was measured continuously for 60 min^41. […] Each 5-min bin was analyzed for time spent (1) lifting and (2) licking or biting the injected paw. […]

What does the source list for NC(=O)c1cccc(-c2cc(OC(=O)NC3CCCCC3)ccc2O)c1 [Compound 1b, cyclohexylcarbamic acid 3′-carbamoyl-6-hydroxybiphenyl-3-yl ester]?
access of URB937 to the brain with Ko-143 ([1]; co-administration of BCRP inhibitor Ko-143): dose-dependent increase; access of URB937 to the brain with verapamil or probenecid ([1]; co-administration of verapamil or probenecid): no such effect; area under the curve of formalin-induced pain behavior [2]: decreased the area under the curve
